Literature values as cited in US20260191834A1, “PHARMACEUTICAL COMBINATION FOR THE TREATMENT OF MULTIPLE MYELOMA, MONOCLONAL GAMMOPATHY OF UNDETERMINED SIGNIFICANCE, AND SMOLDERING MULTIPLE MYELOMA” (priority 2022, published 2026).

For `CC[C@H]1OC(=O)[C@H](C)[C@@H](O[C@H]2C[C@@](C)(OC)[C@@H](O)[C@H](C)O2)[C@H](C)[C@@H](O[C@@H]2O[C@H](C)C[C@H](N(C)C)[C@H]2O)[C@](C)(OC)C[C@@H](C)C(=O)[C@H](C)[C@@H](O)[C@]1(C)O` [clarithromycin, Clarithromycin], the “efficacy for treating multiple myeloma” value (as an add-on to chemotherapies) is given as “reported and confirmed” and the “efficacy for Multiple Myeloma” value (given alone as a single treatment) is given as “no efficacy”.
